Data taken from patent EP4741383A1, “COMPOUND AND USE THEREOF AS ANTI-CANCER DRUG” (Tyligand Bioscience (Shanghai) Limited, priority 2023, dated 2025).
pIC50: −log10 of the molar value.

Tests used:
Assay type in all cases: biochemical
LMWPTP = molecular target: T1, LMWPTP (Homo sapiens, UniProt P24666); assay: Tyrosine phosphatase selectivity (pNPP substrate), LMWPTP; details: for pIC50: LMPTP*, pNPP substrate; for IC50PTP/IC50SHP2 LMPTP*: selectivity ratio LMPTP* over SHP2
T1 construct: made in house; host or cells: E. coli
T1 sequence (P24666 1-158): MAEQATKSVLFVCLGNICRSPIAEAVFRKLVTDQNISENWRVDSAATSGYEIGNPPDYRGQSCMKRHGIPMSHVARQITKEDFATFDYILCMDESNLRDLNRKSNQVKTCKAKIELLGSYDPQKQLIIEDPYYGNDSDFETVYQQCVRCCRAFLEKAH
Experimental: (§1) This experiment evaluated the selectivity of the disclosed compounds against tyrosine phosphatases, including SHP1, HePTP, Laforin, LMWPTP, LYP, PTP1B, PRL2, SSU72, VHR, FAP1, STEP, CDC14A, CD45, MEG2, and PP5, all expressed and purified from E. coli.
(§2) Phosphatase activity was measured using p-nitrophenyl phosphate (pNPP) (Fisher Scientific) as the substrate in 50 mM 3,3-dimethylglutaric acid buffer (pH 7.0, containing 1 mM EDTA), with ionic strength adjusted to 0.15 M with NaCl. […] After 10-60 minutes, the reaction was quenched by adding 20 µL of 5 N NaOH. Wells without enzyme were used as controls for correction. The amount of the product, p-nitrophenol, was determined by measuring the absorbance at 405 nm using a Spectra MAX340 microplate spectrophotometer (Molecular Devices), with a molar extinction coefficient of 18000 M^-1cm^-1.
(§3) Data were analyzed using GraphPad Prism software. Dose-response curves were obtained by fitting data using the nonlinear S-curve regression Dose-response-inhibition equation, and IC50 values were calculated.

SSU72 = molecular target: T2, SSU72 (Homo sapiens, UniProt Q9NP77); assay: Tyrosine phosphatase selectivity (pNPP substrate), SSU72; details: for pIC50: SSU72, pNPP substrate; for IC50PTP/IC50SHP2 SSU72: selectivity ratio SSU72 over SHP2
T2 construct: made in house; host or cells: E. coli
T2 sequence (Q9NP77 1-194): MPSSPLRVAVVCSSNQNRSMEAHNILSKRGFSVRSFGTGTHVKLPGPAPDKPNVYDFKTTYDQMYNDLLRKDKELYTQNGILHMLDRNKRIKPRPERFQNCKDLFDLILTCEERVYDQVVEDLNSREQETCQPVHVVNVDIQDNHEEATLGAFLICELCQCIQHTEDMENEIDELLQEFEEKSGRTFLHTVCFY
Experimental: as §1, §2, §3

VHR = molecular target: T3, VHR (Homo sapiens, UniProt P51452); assay: Tyrosine phosphatase selectivity (pNPP substrate), VHR; details: for pIC50: VHR, pNPP substrate; for IC50PTP/IC50SHP2 VHR: selectivity ratio VHR over SHP2
T3 construct: made in house; host or cells: E. coli
T3 sequence (P51452 whole entry, species assumed): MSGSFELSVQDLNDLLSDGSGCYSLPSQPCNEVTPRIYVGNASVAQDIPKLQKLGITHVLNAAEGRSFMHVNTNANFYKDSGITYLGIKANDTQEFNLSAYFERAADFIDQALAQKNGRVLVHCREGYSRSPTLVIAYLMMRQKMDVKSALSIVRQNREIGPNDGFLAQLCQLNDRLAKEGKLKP
Experimental: as §1, §2, §3

FAP1 [1] = molecular target: T4, FAP1 (Homo sapiens, UniProt Q12923); assay: Tyrosine phosphatase selectivity (pNPP substrate), FAP1; details: FAP1, pNPP substrate
T4 sequence (Q12923 2163-2477): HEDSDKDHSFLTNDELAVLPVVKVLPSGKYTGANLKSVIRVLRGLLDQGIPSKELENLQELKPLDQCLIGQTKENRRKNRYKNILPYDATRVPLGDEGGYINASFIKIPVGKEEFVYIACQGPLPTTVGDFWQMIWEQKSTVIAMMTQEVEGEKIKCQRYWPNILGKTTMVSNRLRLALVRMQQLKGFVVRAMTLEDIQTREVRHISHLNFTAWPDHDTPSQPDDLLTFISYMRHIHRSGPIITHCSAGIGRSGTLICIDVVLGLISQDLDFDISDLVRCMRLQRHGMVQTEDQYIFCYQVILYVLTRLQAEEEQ
Experimental: as §1, §2, §3

FAP1 [2] = assay: as above; details: selectivity ratio FAP1 over SHP2
Experimental: as §1, §2, §3

STEP = molecular target: T5, STEP (Homo sapiens, UniProt P54829); assay: Tyrosine phosphatase selectivity (pNPP substrate), STEP; details: for pIC50: STEP, pNPP substrate; for IC50PTP/IC50SHP2 STEP: selectivity ratio STEP over SHP2
T5 construct: made in house; host or cells: E. coli
T5 sequence (P54829 1-565): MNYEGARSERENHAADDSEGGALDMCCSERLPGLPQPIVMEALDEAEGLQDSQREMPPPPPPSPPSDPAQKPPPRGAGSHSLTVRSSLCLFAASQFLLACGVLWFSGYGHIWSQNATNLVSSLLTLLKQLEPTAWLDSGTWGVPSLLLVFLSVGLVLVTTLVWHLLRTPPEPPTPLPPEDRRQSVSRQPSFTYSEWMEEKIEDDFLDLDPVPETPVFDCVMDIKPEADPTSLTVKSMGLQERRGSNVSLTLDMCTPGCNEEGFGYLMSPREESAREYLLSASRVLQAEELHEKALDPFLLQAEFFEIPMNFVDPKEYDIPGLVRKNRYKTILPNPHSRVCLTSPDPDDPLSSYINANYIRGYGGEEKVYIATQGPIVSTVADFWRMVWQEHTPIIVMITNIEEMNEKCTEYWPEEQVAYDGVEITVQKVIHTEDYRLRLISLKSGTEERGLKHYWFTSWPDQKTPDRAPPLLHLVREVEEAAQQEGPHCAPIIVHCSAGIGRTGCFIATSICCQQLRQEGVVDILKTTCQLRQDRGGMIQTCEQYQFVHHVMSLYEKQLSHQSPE
Experimental: as §1, §2, §3

CDC14A = molecular target: T6, CDC14A (Homo sapiens, UniProt Q9UNH5); assay: Tyrosine phosphatase selectivity (pNPP substrate), CDC14A; details: for pIC50: CDC14A, pNPP substrate; for IC50PTP/IC50SHP2 CDC14A: selectivity ratio CDC14A over SHP2
T6 construct: made in house; host or cells: E. coli
T6 sequence (Q9UNH5 1-594): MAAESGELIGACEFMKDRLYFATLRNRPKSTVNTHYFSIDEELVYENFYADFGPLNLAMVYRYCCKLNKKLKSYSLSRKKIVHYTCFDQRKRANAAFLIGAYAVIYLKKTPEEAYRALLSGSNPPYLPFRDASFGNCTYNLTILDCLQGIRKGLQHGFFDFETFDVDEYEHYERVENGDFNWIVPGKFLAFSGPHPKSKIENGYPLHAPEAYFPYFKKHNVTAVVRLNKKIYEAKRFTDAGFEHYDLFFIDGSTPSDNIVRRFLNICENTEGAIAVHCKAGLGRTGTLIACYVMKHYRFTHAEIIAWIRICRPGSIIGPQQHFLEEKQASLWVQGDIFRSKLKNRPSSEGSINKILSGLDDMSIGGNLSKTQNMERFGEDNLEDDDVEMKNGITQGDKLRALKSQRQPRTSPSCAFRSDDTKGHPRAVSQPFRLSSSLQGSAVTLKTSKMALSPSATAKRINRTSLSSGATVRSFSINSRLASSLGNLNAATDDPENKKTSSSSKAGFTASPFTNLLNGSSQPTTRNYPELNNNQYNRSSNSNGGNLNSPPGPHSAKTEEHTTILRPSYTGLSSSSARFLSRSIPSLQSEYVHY
Experimental: as §1, §2, §3

Row | Compound | pIC50 (LMWPTP) | IC50PTP/IC50SHP2 LMPTP* (LMWPTP) | pIC50 (SSU72) | IC50PTP/IC50SHP2 SSU72 (SSU72) | pIC50 (VHR) | IC50PTP/IC50SHP2 VHR (VHR) | pIC50 (FAP1 [1]) | IC50PTP/IC50SHP2 FAP1 (FAP1 [2]) | pIC50 (STEP) | IC50PTP/IC50SHP2 STEP (STEP) | pIC50 (CDC14A) | IC50PTP/IC50SHP2 CDC14A (CDC14A)
1 | O=C(Nc1ccc(-c2ccsc2)cc1)C(=O)Nc1ccc(-c2cc3cc(F)c(-c4nnn[nH]4)cc3n2C2CCC2)cc1 [Example 4] | < 4.70 | 689.7 | > 5.52 | 103.4 | 5.35 | 155.2 | 4.71 | 672.4 | 5.35 | 155.2 | < 4.30 | 1724.1
2 | O=C(Nc1ccc(-c2cc3cc(F)c(-c4nnn[nH]4)cc3n2C2CCC2)cc1)C(=O)Nc1ccc(N2CCOCC2)cc1 [Example 47] | 5.96 | 17.3 | 7.05 | 1.4 | 5.94 | 18.2 | 5.82 | 24.2 | 6.11 | 12.2 | – | 1587
3 | Cn1cc(-c2ccc(NC(=O)C(=O)Nc3ccc(-c4cc5cc(F)c(-c6noc(=O)[nH]6)cc5n4C4CCC4)cc3)cc2)cn1 [Example 123] | 5.61 | 17.6 | < 4.00 | 709.2 | 5.61 | 17.3 | 5.14 | 51.8 | 4.81 | 109.9 | < 4.00 | 709.2
4 | Cn1cc(-c2ccc(NC(=O)C(=O)Nc3ccc(-c4cc5cc(F)c(-c6nnc(C(F)(F)F)[nH]6)cc5n4C4CCC4)cc3)cc2)cn1 [Example 124] | < 4.70 | 27.9 | < 4.00 | 139.7 | < 4.00 | 139.7 | < 4.00 | 139.7 | < 4.00 | 139.7 | < 4.00 | 139.7
5 | O=C(Nc1ccc(-c2oc3cc(F)c(-c4nnn[nH]4)cc3c2C2CCC2)cc1)C(=O)Nc1ccc(N2CCC3(CCOC3)CC2)cc1 [Example 125] | 5.65 | 43.9 | < 4.00 | 1960.8 | 4.05 | 1729.4 | 5.13 | 145.9 | 5.18 | 129.8 | < 4.00 | 1960.8
6 | O=C(Nc1ccc(-c2ccsc2)cc1)C(=O)Nc1ccc(-c2cc3ccc(-c4nnn[nH]4)nc3n2C2CCC2)cc1 [Example 129] | < 4.70 | 339.0 | 4.45 | 606.8 | > 5.52 | 50.8 | 5.38 | 71.2 | > 5.52 | 50.8 | 4.46 | 586.4
7 | O=C(Nc1ccc(-c2ccsc2)cc1)C(=O)Nc1ccc(-c2oc3cc(F)c(-c4nnn[nH]4)cc3c2C2CCC2)cc1 [Example 130] | < 4.70 | 800 | > 5.52 | 120 | > 5.52 | 120 | > 5.52 | 120 | > 5.52 | 120 | < 4.30 | 2000
8 | O=C(Nc1ccc(-c2ccsc2)cc1)C(=O)Nc1ccc(-c2cc3cnc(-c4nnn[nH]4)nc3n2C2CCC2)cc1 [Example 131] | < 4.70 | 769.2 | > 5.52 | 115.4 | 5.00 | 380.8 | 4.96 | 423.1 | 5.08 | 323.1 | < 4.30 | 1923.1

Further lines, results first:

Row | pIC50 (LMWPTP) | IC50PTP/IC50SHP2 LMPTP* (LMWPTP) | pIC50 (SSU72) | IC50PTP/IC50SHP2 SSU72 (SSU72) | pIC50 (VHR) | IC50PTP/IC50SHP2 VHR (VHR) | pIC50 (FAP1 [1]) | IC50PTP/IC50SHP2 FAP1 (FAP1 [2]) | pIC50 (STEP) | IC50PTP/IC50SHP2 STEP (STEP) | pIC50 (CDC14A) | IC50PTP/IC50SHP2 CDC14A (CDC14A) | Compound
9 | 5.63 | 21.6 | 5.89 | 12.0 | 5.49 | 29.6 | – | – | 5.40 | 37.0 | 4.80 | 148 | Cn1c(-c2cccc(NC(=O)C(=O)Nc3ccc(-c4ccsc4)cc3)c2)c(I)c2cc(C(=O)O)c(O)cc21 [Example 11a-1, reference compound]
10 | 5.86 | 40.2 | 7.80 | 0.47 | 5.35 | 130 | 5.63 | 68.8 | 5.16 | 204.1 | – | 2941 | O=C(Nc1ccc(-c2cc3cc(F)c(-c4nnn[nH]4)cc3n2C2CCC2)cc1)C(=O)Nc1ccc(N2CCC3(CCOC3)CC2)cc1 [Example 67]
11 | 6.43 | 7.7 | – | – | < 4.60 | 520.8 | 6.25 | 11.7 | 5.08 | 171.5 | < 4.60 | 520.8 | CC1(n2c(-c3ccc(NC(=O)C(=O)Nc4ccc(N5CCC6(CCOC6)CC5)cc4)cc3)cc3cc(F)c(-c4nnn[nH]4)cc32)CCC1 [Example 68]
12 | 5.67 | 29.5 | 7.05 | 1.2 | 5.67 | 29.7 | 5.72 | 26.3 | 5.74 | 25.4 | – | 1388 | O=C(Nc1ccc(-c2cc3cc(F)c(-c4nnn[nH]4)cc3n2C2CCC2)cc1)C(=O)Nc1ccc(N2CC3COCC3C2)cc1 (centres unmarked) [Example 114]
